In patent US8735439B2, “Chlorin e6-folic acid conjugate, preparation method thereof, and a pharmaceutical composition for the treatment of cancer comprising the same” (Diatech Korea Co., Ltd., priority 2009, dated 2014):

Tests used:
[1] = Generation of singlet oxygen (luminescence at 1270 nm); assay type: physicochemical
Method: Photoresponse of this process (φΔ) was measured by a relative method through integral intensity of singlet oxygen luminescence at a wavelength of 1270 nm. Excitation was conducted at a wavelength of 531 nm (pulse energy 4 microJ, frequency 1 kHz). Tests were made in air saturated buffer solutions at room temperature. […] The φΔ in D2O was considered as 0.7.
To analyze kinetic curves of singlet oxygen luminescence, the following function was used:
wherein A is a coefficient depending on initial concentrations of interacted reagents, and k1 and k2 are constants of luminescence signal increase and extinction, respectively.
In the case when the deactivation rate constant Kτ of the photosensitizer triplet state exceeds the deactivation rate constant KΔ of the molecular oxygen […] state, the constant of increase k1 corresponds to Kτ, and constant of extinction k2 corresponds to KΔ. In the case of Kτ<KΔ, inversion of the kinetics of singlet oxygen luminescence occurs. In this case, k2=Kτ and k1=KΔ. […] Thus, based on kinetic data, the life times of singlet oxygen and triplet state can be calculated.

[2] = Photophysical parameters (triplet state, intercombinative conversion) of chlorin e6 conjugate; assay type: physicochemical
Method: Values of Δ ? and Δ ? were determined after substantially transferring of all molecules of the studied substance in excited triplet state. In such conditions, ΔD=CΔεTl, wherein C indicates the molar concentration of the substance in solution, and l indicates the length of the optical way. As the standard to estimate γ, Pd(II)-octa ethyl porphyrin (Pd (II)-OEP) was selected, for which the γ value in benzol was considered as equal to one.

HeLa cell culture = assay: Phototoxicity (photodynamic activity), 3.5 h incubation, 3.3 joule/cm^2; assay type: cell-based; design: number of HELA cells relative to the control: unit not given here; conditions: photoexposure 3.3 joule/cm^2; for number of HELA cells relative to the control: 3.5 hours incubation
Method: To examine the photodynamic effects of a photosensitizer on a HeLa cell culture, the photosensitizer solution was added to the nutrient media at a final concentration of 0.1, 0.5, 1.0, 5.0 or 10 mcg/ml on day 3 after transplanting the cell culture into flasks. The flasks were wrapped with a light protecting cover, and incubated at 37° C. for 3.5 hours. Then, the cells were washed with Hank's solution, and exposed on ice by a laser medical device “LD 680-2000” (wavelength: 670-690 nm) at a dose of 3.3 joule/cm^2. After 20-24 hours, the available cell monolayer was dispersed using a 0.02%-Versene solution, and the number of tumor cells was calculated in Goriaev's chamber. For each point, 3 flasks were used.

human serum albumin = human serum albumin (Homo sapiens, UniProt P02768); assay: Pigment-protein complex formation with human serum albumin; conditions: HSA, number of binding positions n=1
Text: Pigment-protein complexes have been formed by adding to the solution of human serum albumin (HAS) a specific amount of photosensitizer dissolved in the same buffer. […] Similarly, the photosensitizer was included in detergent micelle (Triton X-100, C=10^−3M).
wherein r and C are the respectively concentrations of bound and unbound protein pigment, r+C=CΣ. […] It is also applicable with respect to pigment molecules included in Triton X-100 micelle.

Hela cells [3] = assay: Competition assay with exogenous folic acid, uptake in Hela cells; assay type: cell-based; conditions: 4 μM/l folic acid, 24 hours
Text: Then, the sample was centrifuged, the supernatant was taken, and the pellet was rewashed with cooled Hank's solution. The obtained pellet was again transferred into Hank's solution.

Hela cells [4] = assay: Accumulation in Hela cells; assay type: cell-based; conditions: for concentration in Hela cells: 2×10^−5 M/l, 37° C.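 On concentration in Hela cells: measured as suspension fluorescence intensity at excitation 405 nm and emission 665 nm.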
Method: The cellular accumulation and the targeted delivery of the photoactive compounds were investigated using Hela cells, which is one of the numerous tumor cell types that overexpress folate receptors.
Cells were cultivated for 3 days in medium 199, and transferred to Hank's solution/medium 199 (9/1). After 3 hours, the cell were collected by trypsin treatment from the substrate and placed in Hank's solution (10^5 ? /ml). To cell suspensions, chlorin e6 conjugates were added at a concentration of 2×10^−5 M/l, and incubated at 37° C. After 1, 5, 10, 15, and 24 hours, the samples were centrifuged, the pellet was washed with the cooled Hank's solution, and transferred to Hank's solution at a concentration being equal to that in the initial suspension.

[5] = air saturated buffer solution, room temperature

Chain of human serum albumin (P02768 25-609): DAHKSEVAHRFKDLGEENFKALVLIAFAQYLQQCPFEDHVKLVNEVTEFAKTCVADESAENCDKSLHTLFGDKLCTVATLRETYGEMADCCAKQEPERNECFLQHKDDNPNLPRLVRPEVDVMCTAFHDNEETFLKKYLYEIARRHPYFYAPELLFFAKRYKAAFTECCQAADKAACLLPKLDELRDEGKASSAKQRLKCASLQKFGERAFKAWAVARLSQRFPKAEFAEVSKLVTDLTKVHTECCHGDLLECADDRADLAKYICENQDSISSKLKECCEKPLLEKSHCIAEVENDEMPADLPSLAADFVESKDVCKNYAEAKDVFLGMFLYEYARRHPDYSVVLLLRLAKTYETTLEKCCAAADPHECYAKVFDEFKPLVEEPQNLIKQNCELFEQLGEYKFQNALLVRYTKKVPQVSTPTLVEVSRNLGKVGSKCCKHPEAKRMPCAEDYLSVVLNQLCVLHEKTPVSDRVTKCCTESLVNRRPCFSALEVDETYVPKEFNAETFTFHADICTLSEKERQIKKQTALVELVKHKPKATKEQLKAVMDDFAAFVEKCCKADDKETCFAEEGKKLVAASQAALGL

With “[γ-(6-aminohexyl)folic acid]-chlorin e6 [chlorin e6 conjugate]” the “φΔ (efficiency of ^1O2 generation)” value ([1]; H2O, pH 8.1) was 0.70, the “φΔ (efficiency of ^1O2 generation)” value ([1]; HSA, H2O, pH 8.1) was 0.63- and the “φΔ (efficiency of ^1O2 generation)” value ([1]; Pyridine) was 0.68. The “φΔ (efficiency of ^1O2 generation)” value ([1]; Triton X-100) was 0.80, the “τt (life time of triplet state) from kinetic curves of singlet oxygen luminescence” value [1, 5] was 2.0±0.2 microsec and the “τΔ (life time of singlet oxygen) from kinetic curves of singlet oxygen luminescence” value [1, 5] was 3.6±0.2 microsec. For the same substance, the “photoresponse of photosensitized formation of singlet oxygen” value ([1]; pH 6.0) was 0.52, the “photoresponse of photosensitized formation of singlet oxygen” value ([1]; pH 8.1) was 0.7 and the “Δε^T” value ([2]; H2O, pH 8.1) was 278 dm^3 mol^−1 cm^−1. The “γ (photoresponse of intercombinative conversion)” value ([2]; H2O, pH 8.1) was 0.8, the “τt (triplet lifetime, oxygen saturated)” value ([2]; H2O, pH 8.1) was 2.5 μs and the “τt^0 (triplet lifetime, deoxygenated)” value ([2]; H2O, pH 8.1) was 170 μs. The “Δε^T” value ([2]; HSA, H2O, pH 8.1) was 798 dm^3 mol^−1 cm^−1, the “γ (photoresponse of intercombinative conversion)” value ([2]; HSA, H2O, pH 8.1) was 0.82 and the “τt (triplet lifetime, oxygen saturated)” value ([2]; HSA, H2O, pH 8.1) was 14.7 μs. The “τt^0 (triplet lifetime, deoxygenated)” value ([2]; HSA, H2O, pH 8.1) was 700 μs, the “Δε^T” value ([2]; Liposomes, H2O, pH 8.1) was 251 dm^3 mol^−1 cm^−1 and the γ (photoresponse of intercombinative conversion) ([2]; Liposomes, H2O, pH 8.1) was 0.78. For the same substance, the “τt (triplet lifetime, oxygen saturated)” value ([2]; Liposomes, H2O, pH 8.1) was 1.4 μs, the “τt^0 (triplet lifetime, deoxygenated)” value ([2]; Liposomes, H2O, pH 8.1) was 70 μs and the “Δε^T” value ([2]; Pyridine) was 94 dm^3 mol^−1 cm^−1. For the same substance, the “γ (photoresponse of intercombinative conversion)” value ([2]; Pyridine) was 0.81, the “τt (triplet lifetime, oxygen saturated)” value ([2]; Pyridine) was 0.3 μs and the “τt^0 (triplet lifetime, deoxygenated)” value ([2]; Pyridine) was 140 μs. For the same substance, the “τt (triplet lifetime, oxygen saturated)” value ([2]; Triton X-100) was 2.6 μs, the “τt^0 (triplet lifetime, deoxygenated)” value ([2]; Triton X-100) was 230 μs and the “γ (photoresponse of intercombinative conversion)” value ([2]; practically similar in all the systems) was “≈ 0.7”. For the same substance, the “number of HELA cells relative to the control” value (HeLa cell culture; 0.1 mcg/ml) was 65.1, the “number of HELA cells relative to the control” value (HeLa cell culture; 0.5 mcg/ml) was 42.3 and the “number of HELA cells relative to the control” value (HeLa cell culture; 1.0 mcg/ml) was 12.6. For the same substance, the “inhibition of proliferation of Hela cells” value (HeLa cell culture; 5-10 mcg/ml) was “fully inhibited the proliferation”, the “number of HELA cells relative to the control” value (HeLa cell culture; 5.0 mcg/ml) was 0.1 and the “binding constant κCB with protein” value (human serum albumin) was 1.2e+06 M⁻¹. For the same substance, the “effect of free folic acid on uptake in Hela cells” value (Hela cells [3]) was “significantly reduced the uptake”, the “binding with cells over time” value (Hela cells [4]; Hela cells) was “increases linearly over 20 hours” and the “accumulation compared with cellular uptake of free chlorin e6” value (Hela cells [4]; Hela cells, after 6 hr incubation) was “distinctly higher”. The “cellular uptake relative to free chlorin e6” value (Hela cells [4]; Hela cells, after 24 hr incubation, on average, listed as chlorin e6-folic acid conjugate) was “about 10 fold”, the “concentration in Hela cells” value (Hela cells [4]; incubation 1 hour) was 0.40 relative units/10^4 cl and the “concentration in Hela cells” value (Hela cells [4]; incubation 5 hours) was 1.80 relative units/10^4 cl. The “concentration in Hela cells” value (Hela cells [4]; incubation 10 hours) was 2.50 relative units/10^4 cl, the “concentration in Hela cells” value (Hela cells [4]; incubation 15 hours) was 12.5 relative units/10^4 cl and the “concentration in Hela cells” value (Hela cells [4]; incubation 24 hours) was 15.0 relative units/10^4 cl.
